The text below walks through data of ChEMBL document CHEMBL1201862, “PubChem BioAssay data set” (2004).

Test systems include MOLT-4; UACC-257; SF-539; SK-MEL-28; SR; CCRF-CEM; OVCAR-4; SK-OV-3; HCT-15; U-251; HCC 2998; A498; TK-10; SF-268; HL-60; OVCAR-3; SW-620; OVCAR-8; MCF7.
Assay in all cases: NCI tumour cell line growth inhibition, 48 h

Structures are written as SMILES.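 Exposure lasted 48 hours, with cells grown in 96-well plates and compounds tested at five concentrations. GI50 marks 50% less growth.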 The source made the active and inactive calls. No stated cut-off is given here; in the data, active = GI50 up to about 1.1 µM and inactive = higher.

In the case of `Clc1ccccc1/C=C/c1cscn1`, the GI50 in the assay on MOLT-4, in the assay on UACC-257, in the assay on SF-539, in the assay with SK-MEL-28, in the assay with SR and with CCRF-CEM was > 100 µM (inactive) each time. Also, the GI50 in the assay on OVCAR-4 is > 100 µM (inactive); in the assay on SK-OV-3, > 100 µM (inactive); in the assay on HCT-15 it was more than 100 µM; in the assay with U-251, > 100 µM (inactive); in the assay on HCC 2998 it was > 100 µM (inactive); in the assay with A498 it was > 100 µM (inactive). For the same compound, the GI50 in the assay with TK-10, in the assay with SF-268, in the assay with HL-60 and in the assay on OVCAR-3 was > 100 µM (inactive) in each case.

For the compound `COc1cc(/N=N\c2ccc(OC)c(S(=O)(=O)O)c2)c(C)cc1/N=N\c1ccc(/C=C/c2ccc(/N=[N+](/[O-])c3ccc(/C=C/c4ccc(/N=N/c5cc(C)c(/N=N\c6ccc(OC)c(S(=O)(=O)O)c6)cc5OC)cc4S(=O)(=O)O)c(S(=O)(=O)O)c3)cc2S(=O)(=O)O)c(S(=O)(=O)O)c1`, the GI50 in the assay with MOLT-4, in the assay with UACC-257, in the assay with SF-539, with SK-MEL-28, with CCRF-CEM and in the assay with SW-620 was > 100 µM (inactive) each time. Moreover, the GI50 with OVCAR-4 is > 100 µM (inactive); in the assay with SK-OV-3 it was > 100 µM (inactive); in the assay with OVCAR-8, > 100 µM (inactive); in the assay on HCT-15 it was more than 100 µM; with MCF7 it was > 100 µM (inactive); in the assay on U-251, > 100 µM (inactive). Also, the GI50 with HCC 2998 was > 100 µM (inactive); in the assay with A498, > 100 µM (inactive); in the assay on SF-268, > 100 µM (inactive); in the assay with HL-60, 69.8 µM (inactive); with OVCAR-3, > 100 µM (inactive).

Consider `CC1=CC[C@H](C)C(C)(C)C1/C=C/C(C)=C/CC[C@@]1(CO)[C@H](CCCO)/C(=C(/C)C=O)CC[C@]1(C)O` (some centres not stated), for which the GI50 was 1.57 µM (inactive) in the assay with MOLT-4; 15.2 µM (inactive) with UACC-257; 6.78 µM (inactive) with SF-539; 11.4 µM (inactive) in the assay with SK-MEL-28; 0.493 µM (active) in the assay on SR; 4.21 µM (inactive) in the assay with CCRF-CEM. Moreover, the GI50 in the assay on SW-620 is 2.01 µM (inactive); in the assay on SK-OV-3, 25.2 µM (inactive); in the assay with OVCAR-8, 15 µM (inactive); in the assay with HCT-15, 7.64 µM; with U-251 it was 2.86 µM (inactive); with HCC 2998 it was 2.31 µM (inactive). In addition, the results for the GI50 in the assay on TK-10, in the assay with SF-268 and in the assay on HL-60 were 5.5 µM (inactive), 7.46 µM (inactive) and 0.897 µM (active), respectively.

Turning to `O=C1[C@@H]2C(c3c(Cl)cccc3Cl)=NO[C@@H]2C(=O)N1c1ccc(Cc2ccc(N3C(=O)[C@H]4C(c5c(Cl)cccc5Cl)=NO[C@H]4C3=O)cc2)cc1`, the GI50 in the assay on MOLT-4, in the assay on UACC-257, in the assay on SF-539, in the assay on SK-MEL-28, with CCRF-CEM and in the assay on SW-620 was > 100 µM (inactive) throughout. Also, the GI50 in the assay with OVCAR-4 is > 100 µM (inactive); in the assay on SK-OV-3, > 100 µM (inactive); in the assay with OVCAR-8 it was > 100 µM (inactive); with HCT-15, more than 100 µM; with U-251, > 100 µM (inactive); with HCC 2998, > 100 µM (inactive). The GI50 with A498, in the assay on TK-10, in the assay with SF-268, in the assay on HL-60 and in the assay on OVCAR-3 was > 100 µM (inactive) each time.

On to `O=C(O)C1CCC(=O)N1C(=O)COc1cc(Cl)c(Cl)cc1Cl` (configuration not stated), for which the GI50 in the assay with UACC-257, in the assay with SK-MEL-28, with SW-620, in the assay on OVCAR-4, in the assay on SK-OV-3 and in the assay with OVCAR-8 was > 100 µM (inactive) throughout. The GI50 in the assay with HCT-15 was more than 100 µM; with U-251, > 100 µM (inactive); in the assay with A498, > 100 µM (inactive); in the assay with TK-10, > 100 µM (inactive); with SF-268, > 100 µM (inactive); in the assay on OVCAR-3, > 100 µM (inactive).

Regarding `N#Cc1ccccc1NC(=O)C(=O)C(C(=O)c1ccccc1F)C1OC(=O)c2ccccc21` (configuration not stated), the GI50 with MOLT-4 is 25 µM (inactive); in the assay with UACC-257, 58.2 µM (inactive); in the assay with SF-539 it was 24.8 µM (inactive); in the assay on SK-MEL-28, 39.4 µM (inactive); in the assay on SR, 17.1 µM (inactive); in the assay on CCRF-CEM, 15.1 µM (inactive). Also, the GI50 is > 100 µM (inactive) in the assay on SW-620; 65 µM (inactive) in the assay on OVCAR-4; 41.3 µM (inactive) with SK-OV-3; 40.7 µM (inactive) in the assay on OVCAR-8; 30.1 µM in the assay with HCT-15; 15 µM (inactive) in the assay on U-251. Moreover, the GI50 in the assay with HCC 2998 is 19.9 µM (inactive); in the assay with A498, > 100 µM (inactive); with TK-10 it was > 100 µM (inactive); with SF-268 it was 40.1 µM (inactive); in the assay with HL-60, 20.9 µM (inactive).

Take `CCOC(=O)C(C(=O)OCC)c1cc(-c2cc3ccccc3o2)oc(=O)c1C#N`: the GI50 was 21.6 µM (inactive) in the assay on MOLT-4; 25.6 µM (inactive) in the assay with UACC-257; 19.3 µM (inactive) in the assay on SF-539; 25.1 µM (inactive) with SK-MEL-28; 24.5 µM (inactive) with SR; 29.6 µM (inactive) in the assay with CCRF-CEM. For the same compound, the GI50 in the assay with SW-620 is 23.1 µM (inactive); in the assay on OVCAR-4 it was 26.5 µM (inactive); in the assay with OVCAR-8, 21.4 µM (inactive); in the assay on HCT-15, 19.1 µM; with U-251, 16.2 µM (inactive); with HCC 2998 it was 19.5 µM (inactive). Besides, the GI50 in the assay on A498 was 25.3 µM (inactive); with TK-10 it was 27.3 µM (inactive); in the assay with SF-268 it was 34.9 µM (inactive); in the assay with HL-60, 29.7 µM (inactive).

As to `CC(C)=CCC(OC(=O)C=C(C)C)c1cc(O)c2c(c1O)C(=O)C=CC2=O` (configuration not stated), the GI50 in the assay with UACC-257 is 0.753 µM (active); in the assay with SF-539 it was 2.3 µM (inactive); in the assay with SK-MEL-28, 0.853 µM (active); in the assay with CCRF-CEM, 0.0208 µM (active); with SW-620 it was 0.267 µM (active); in the assay with OVCAR-4 it was 0.78 µM (active). Besides, the GI50 in the assay on SK-OV-3 was 5.45 µM (inactive); in the assay on OVCAR-8 it was 0.33 µM (active); in the assay on HCT-15, 0.398 µM; in the assay on U-251, 3.08 µM (inactive); in the assay on HCC 2998, 2.4 µM (inactive); with A498, 2.62 µM (inactive). In addition, the GI50 is 1.39 µM (inactive) in the assay with SF-268, 0.0419 µM (active) in the assay on HL-60 and 0.839 µM (active) in the assay on OVCAR-3.

As to `CC(C)CC(N)C(=O)OCN1C(=O)C2C3C=CC(C2C1=O)C1C2C(=O)N(COC(=O)C(N)CC(C)C)C(=O)C2C31` (configuration not stated), the GI50 in the assay with MOLT-4 is > 100 µM (inactive); with UACC-257, > 100 µM (inactive); with SF-539, > 100 µM (inactive); in the assay on SK-MEL-28 it was > 100 µM (inactive); in the assay on CCRF-CEM it was 75.3 µM (inactive); with SW-620 it was > 53.6 µM (inactive). The GI50 with OVCAR-4 was > 100 µM (inactive); with SK-OV-3, > 100 µM (inactive); in the assay with OVCAR-8, > 100 µM (inactive); with HCT-15, more than 45 µM; in the assay on U-251, > 100 µM (inactive); with HCC 2998, > 100 µM (inactive). Moreover, the GI50 with A498 was > 100 µM (inactive); in the assay on TK-10 it was > 100 µM (inactive); in the assay on SF-268, > 100 µM (inactive); in the assay on HL-60 it was 30.4 µM (inactive); in the assay on OVCAR-3, > 100 µM (inactive).
